What was measured:
Format in all cases: in vivo
Settings in all cases: 50 g/ha, applied alone
wild oat = assay: post-emergence application, control of unwanted plants (damage scale 0% to 100%)
Description: (§1) The mixtures according to the invention were applied pre- or post-emergence (foliar treatment). The herbicidal compounds of component B) and of component C) were applied in the formulation in which they are present as commercially available product.
(§2) In the case of the field trials, application was effected with the aid of a mobile plot sprayer.
(§3) The test period extended over 3 to 8 weeks, and the stands were also observed at later points in time.
(§4) Damage by the herbicidal compositions was evaluated with reference to a scale of 0% to 100% in comparison with untreated control plots. 0 means no damage and 100 means complete destruction of the plants.

green foxtail = assay: as above
Description: as §1, §2, §3, §4

pigweed = assay: as above
Description: as §1, §2, §3, §4

spring wheat = assay: post-emergence application, damage to crop plants (damage scale 0% to 100%)
Description: as §1, §2, §3, §4

durum wheat = assay: as above
Description: as §1, §2, §3, §4

**Q.** How did the “control of unwanted plants” value (wild oat) turn out when `Cc1c(C(=O)c2cnn(C)c2O)ccc(S(C)(=O)=O)c1C1=NOCC1` [4-[2-methyl-3-(4,5-dihydro-isoxazol-3-yl)-4-methylsulfonyl-benzoyl]-1-methyl-5-hydroxy-1H-pyrazole] was run?
**A.** Its value is “in an excellent manner”.

**Q.** What about the “control of unwanted plants” value (green foxtail) of the same compound?
**A.** Its value is “in an excellent manner”.

**Q.** What about the “control of unwanted plants” value (pigweed) of the same compound?
**A.** Its value is “in an excellent manner”.

**Q.** What about the “damages in crop plants” value (spring wheat) of the same compound?
**A.** Its value is “causes damages”.

**Q.** What about the “damages in crop plants” value (durum wheat) of the same compound?
**A.** Its value is “causes damages”.

Source: patent US20070060478A1, “Herbicidal mixtures comprising a safener” (BASF AKTIENGESELLSCHAFT, priority 2005, published 2007)
